Values quoted from earlier work in US4100185A, “Cyclohexanone 5,6-benzo analogues of prostaglandin E” (Miles Laboratories, Inc., priority 1977, dated 1978).
“Also recorded” adds a separate entry of the source. Like-named read-outs stand apart in the source and are kept apart here.

What was measured:
[1] = tested on: gastric secretion; settings: dogs
[2] = tested on: gastric secretion; settings: man
[3] = tested on: growth hormone; settings: rats
[4] = tested on: adrenergic nervie endings; settings: guinea pig
[5] = tested on: motor pathways in the central nervous system
[6] = tested on: blood platelets; settings: in vitro
[7] = tested on: adrenal glands; settings: hypophysectimized rats
[8] = tested on: ovarian progesterone secretion; settings: sheep
[9] = tested on: thyroid; settings: mice
[10] = tested on: tracheal smooth muscle; settings: in vitro
[11] = tested on: female reproductive system; settings: in vivo
[12] = variety of mammals

Compound	effect on gastric secretion [1]	effect on gastric secretion [2]	effect on growth hormone [3]	effect on transmitter release from adrenergic nerve endings [4]	effect on transmission in motor pathways [5]	effect on thrombogenesis [6]	effect on steroidogenesis in the adrenal glands [7]	effect on ovarian progesterone secretion [8]	effect on thyroid activity [9]	effect on tracheal smooth muscle [10]	effect on fertility, gestation, labor [11]	luteolytic effect [12]
CCCCC[C@H](O)/C=C/[C@H]1C=CC(=O)[C@@H]1CCCCCCC(=O)O [PGA1]	inhibit gastric secretion	exhibits similar activity in man	increased synthesis of that hormone									
CCCCC[C@H](O)/C=C/[C@H]1[C@H](O)CC(=O)[C@@H]1CCCCCCC(=O)O [PGE1, prostaglandin E1]	inhibit gastric secretion		increase release of growth hormone	inhibit transmitter release from adrenergic nervie endings	retards	inhibits thrombogenesis in vitro	stimulate steriodogenesis in the adrenal glands	inhibit ovarian progesterone secretion	increase thyroid activity	relax		
CCCCC[C@H](O)/C=C/[C@H]1[C@H](O)CC(=O)[C@@H]1C/C=C\CCCC(=O)O [PGE2]	inhibit gastric secretion		increase release of growth hormone	inhibit transmitter release from adrenergic nervie endings			stimulate steriodogenesis in the adrenal glands		increase thyroid activity	relax	exerts potent oxytocic effects in inducing labor	
CCCCC[C@H](O)/C=C/[C@@H]1[C@@H](CCCCCCC(=O)O)[C@@H](O)C[C@H]1O [PGF1α]							stimulate steriodogenesis in the adrenal glands	inhibit ovarian progesterone secretion	increase thyroid activity			act as luteolytic factors
CCCCC[C@H](O)/C=C/[C@@H]1[C@@H](CCCCCCC(=O)O)[C@H](O)C[C@H]1O [PGF1β]									increase thyroid activity			
CCCCC[C@H](O)/C=C/[C@@H]1[C@@H](C/C=C\CCCC(=O)O)[C@@H](O)C[C@H]1O [PGF2α]					facilitates transmission in motor pathways in the central nervous system					contracts the smooth muscle	has contragestational effects; also recorded: induces spontaneous abortions in early pregnancy	
